Measured values: PubChem BioAssay AID330 (DTP/NCI, 2004)
Where “and” joins values, the source holds several entries; their conditions need not be identical. Equal entries are not always repeated. Toxic doses and inconclusive results are not listed. Rule for the calls: active = survival T/C of 150% or more; inactive = T/C below 125% in these data. Peptide text beside a SMILES is read from it.

Test system: P388 leukemia ip, CD2F1 mice, survival T/C
Experiment: NCI In Vivo Anticancer Drug Screen. Data for tumor model P388 Leukemia (intraperitoneal) in CD2F1 (CDF1) mice
Details: endpoint: median survival time, higher = longer survival
Summary of the method: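 Mice carrying the transplanted tumor received test compound or vehicle. Survival was recorded in each group, and the value is the treated-group measurement divided by that of the vehicle-treated control group.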

[1] = dose: 100.0 mg/kg/injection, schedule: Q01DX009 (ip), vehicle: saline with Tween-80
[2] = dose: 200.0 mg/kg/injection, schedule: Q01DX009 (ip), vehicle: saline with Tween-80
[3] = dose: 400.0 mg/kg/injection, schedule: Q01DX009 (ip), vehicle: saline with Tween-80
[4] = dose: 60.0 mg/kg/injection, schedule: Q01DX005 (ip), vehicle: Klucel (hydroxypropylcellulose) (HPC)
[5] = dose: 120.0 mg/kg/injection, schedule: Q01DX005 (ip), vehicle: Klucel (hydroxypropylcellulose) (HPC)
[6] = dose: 240.0 mg/kg/injection, schedule: Q01DX005 (ip), vehicle: Klucel (hydroxypropylcellulose) (HPC)
[7] = dose: 50.0 mg/kg/injection, schedule: Q01DX009 (ip), vehicle: saline with Tween-80
[8] = dose: 50.0 mg/kg/injection, schedule: Q01DX005 (ip), vehicle: saline with Tween-80
[9] = dose: 100.0 mg/kg/injection, schedule: Q01DX005 (ip), vehicle: saline with Tween-80
[10] = dose: 200.0 mg/kg/injection, schedule: Q01DX005 (ip), vehicle: saline with Tween-80
[11] = dose: 50.0 mg/kg/injection, schedule: Q01DX009 (ip), vehicle: saline
[12] = dose: 100.0 mg/kg/injection, schedule: Q01DX009 (ip), vehicle: saline
[13] = dose: 200.0 mg/kg/injection, schedule: Q01DX009 (ip), vehicle: saline

Measured: T/C

O=[N+]([O-])c1ccccc1SSc1ccccc1[N+](=O)[O-]
inactive: [1] 95 % of control | [2] 104 % of control | [3] 100 % of control

CCC1(O)C(=O)Nc2ccccc2C1=O (stereo not drawn)
inactive: [4] 98 % of control | [5] 88 % of control | [6] 98 % of control

COC(=O)C12CC(CCC1C13CCC4(OCCO4)C(C)(C)C1C(=O)OC3)C(C)C2O (stereo not drawn)
inactive: dose: 100.0 mg/kg/injection, schedule: Q04DX002 (ip), vehicle: saline with Tween-80 97 % of control | dose: 200.0 mg/kg/injection, schedule: Q04DX002 (ip), vehicle: saline with Tween-80 94 % of control | dose: 400.0 mg/kg/injection, schedule: Q04DX002 (ip), vehicle: saline with Tween-80 100 % of control

O=CNc1c(Nc2ccccc2)nc(-c2ccccc2)[nH]c1=O
inactive: dose: 15.0 mg/kg/injection, schedule: Q01DX009 (ip), vehicle: saline with Tween-80 105 % of control | dose: 30.0 mg/kg/injection, schedule: Q01DX009 (ip), vehicle: saline with Tween-80 91 % of control | dose: 60.0 mg/kg/injection, schedule: Q01DX009 (ip), vehicle: saline with Tween-80 91 % of control

CCSC(=O)OCC(C)([N+](=O)[O-])[N+](=O)[O-]
inactive: dose: 100.0 mg/kg/injection, schedule: Q04DX003 (ip), vehicle: saline 94 % of control | dose: 200.0 mg/kg/injection, schedule: Q04DX003 (ip), vehicle: saline 94 % of control | dose: 400.0 mg/kg/injection, schedule: Q04DX003 (ip), vehicle: saline 100 % of control

O=CC(O)C(O)C(O)C(O)C(O)C#CC#CC(O)C(O)C(O)C(O)C(O)C=O (stereo not drawn)
inactive: dose: 50.0 mg/kg/injection, schedule: Q01DX005 (ip), vehicle: saline 100 % of control | dose: 100.0 mg/kg/injection, schedule: Q01DX005 (ip), vehicle: saline 105 % of control | dose: 200.0 mg/kg/injection, schedule: Q01DX005 (ip), vehicle: saline 92 % of control

O=C1NN=CC1CCCN=Cc1cc(Br)ccc1O (stereo not drawn)
inactive: [7] 96 % of control | [1] 104 % of control | [2] 114 % of control

COc1ccc(C(OC)c2cc(C(C)(C)C)c(O)c(C(C)(C)C)c2)cc1 (stereo not drawn)
inactive: [8] 102 % of control | [9] 109 % of control | [10] 112 % of control

CC(C)(C)NSc1nc2ccccc2s1
inactive: dose: 12.5 mg/kg/injection, schedule: Q01DX009 (ip), vehicle: saline with Tween-80 109 % of control | dose: 12.5 mg/kg/injection, schedule: Q04DX003 (ip), vehicle: saline with Tween-80 100 % of control | dose: 25.0 mg/kg/injection, schedule: Q01DX009 (ip), vehicle: saline with Tween-80 100 % of control | dose: 25.0 mg/kg/injection, schedule: Q04DX003 (ip), vehicle: saline with Tween-80 95 % of control | [7] 100 % of control | dose: 50.0 mg/kg/injection, schedule: Q04DX003 (ip), vehicle: saline with Tween-80 100 % of control and 87 % of control

COc1nc2c(=O)[nH]c(N)nc2n1C1OC(CO)C(O)C1O (stereo not drawn)
inactive: [1] 98 % of control | [2] 113 % of control | [3] 116 % of control

COC(=O)C12OCC34C(OC(=O)C(OC(=O)C=C(C)C)C13)C(OC(C)=O)C1C(C)=CC(=O)CC1(C)C4C(O)C2O (stereo not drawn) (tested in a mixture with another compound)
inactive: dose: 13.0 micrograms/kg/injection, schedule: Q01DX009 (ip), vehicle: saline + alcohol 96 % of control | dose: 25.0 micrograms/kg/injection, schedule: Q01DX009 (ip), vehicle: saline + alcohol 97 % of control | dose: 50.0 micrograms/kg/injection, schedule: Q01DX009 (ip), vehicle: saline + alcohol 100 % of control | dose: 100.0 micrograms/kg/injection, schedule: Q01DX009 (ip), vehicle: saline + alcohol 101 % of control | dose: 190.0 micrograms/kg/injection, schedule: Q01DX009 (ip), vehicle: saline + alcohol 102 % of control | dose: 380.0 micrograms/kg/injection, schedule: Q01DX009 (ip), vehicle: saline + alcohol 102 % of control | dose: 750.0 micrograms/kg/injection, schedule: Q01DX009 (ip), vehicle: saline + alcohol 106 % of control

O=C(Nc1cccc(Cl)c1)Nn1cnnc1
inactive: [11] 101 % of control | [12] 97 % of control | [13] 91 % of control

CC1(C)OC2(C)CCC1C1C2N1C(=O)Nc1cccc2ccccc12 (stereo not drawn)
inactive: [8] 99 % of control | [9] 97 % of control | [10] 93 % of control

N#CC1=C(NC(N)=O)CCCC1
inactive: [4] 106 % of control | [5] 100 % of control | [6] 106 % of control

Clc1ccc2c(c1)CN1Cc3cc(Cl)ccc3C2C1
inactive: dose: 100.0 mg/kg/injection, schedule: Q01DX001 (ip), vehicle: saline with Tween-80 92 % of control | dose: 400.0 mg/kg/injection, schedule: Q01DX001 (ip), vehicle: saline with Tween-80 90 % of control

CC(C)CC(N)C(=O)NC(Cc1cnc[nH]1)C(=O)O (stereo not drawn) (H-Leu-His-OH; configuration not given here)
inactive: dose: 60.0 mg/kg/injection, schedule: Q01DX005 (ip), vehicle: saline 97 % of control | dose: 120.0 mg/kg/injection, schedule: Q01DX005 (ip), vehicle: saline 106 % of control | dose: 240.0 mg/kg/injection, schedule: Q01DX005 (ip), vehicle: saline 104 % of control

CC(=O)NCC1(C)CCCC2(C)C3=CC(=O)C(C(C)C)=CC3(O)CCC12 (stereo not drawn)
inactive: dose: 100.0 mg/kg/injection, schedule: Q01DX001 (ip), vehicle: Klucel (hydroxypropylcellulose) (HPC) 98 % of control | dose: 200.0 mg/kg/injection, schedule: Q01DX001 (ip), vehicle: Klucel (hydroxypropylcellulose) (HPC) 90 % of control | dose: 400.0 mg/kg/injection, schedule: Q01DX001 (ip), vehicle: Klucel (hydroxypropylcellulose) (HPC) 94 % of control

O=C1C2CCN(CC2)C1(CO)CO
inactive: [11] 102 % of control | [12] 105 % of control | [13] 105 % of control

CC1(C)OI(O)c2ccccc21
inactive: dose: 100.0 mg/kg/injection, schedule: Q04DX002 (ip), vehicle: Klucel (hydroxypropylcellulose) (HPC) 100 % of control | dose: 200.0 mg/kg/injection, schedule: Q04DX002 (ip), vehicle: Klucel (hydroxypropylcellulose) (HPC) 100 % of control

Cc1c(F)cccc1[N+](=O)[O-]
inactive: [7] 104 % of control | [1] 114 % of control | [2] 123 % of control

CCn1nnnc1Nc1ccccc1
inactive: dose: 50.0 mg/kg/injection, schedule: Q01DX009 (ip), vehicle: Klucel (hydroxypropylcellulose) (HPC) 120 % of control | dose: 100.0 mg/kg/injection, schedule: Q01DX009 (ip), vehicle: Klucel (hydroxypropylcellulose) (HPC) 123 % of control | dose: 200.0 mg/kg/injection, schedule: Q01DX009 (ip), vehicle: Klucel (hydroxypropylcellulose) (HPC) 113 % of control
